# Target: T1, HGFR (Homo sapiens, UniProt P08581)
# T1 construct: purchased Upstate 14-526
# Assay: HGFR continuous-coupled spectrophotometric assay
# Type: biochemical
# Settings: at 1 pM; Table 6, library procedure 41; read-out: % Inhibition (percent c-MET inhibition)
# T1 sequence (P08581 974-1390 limits assumed): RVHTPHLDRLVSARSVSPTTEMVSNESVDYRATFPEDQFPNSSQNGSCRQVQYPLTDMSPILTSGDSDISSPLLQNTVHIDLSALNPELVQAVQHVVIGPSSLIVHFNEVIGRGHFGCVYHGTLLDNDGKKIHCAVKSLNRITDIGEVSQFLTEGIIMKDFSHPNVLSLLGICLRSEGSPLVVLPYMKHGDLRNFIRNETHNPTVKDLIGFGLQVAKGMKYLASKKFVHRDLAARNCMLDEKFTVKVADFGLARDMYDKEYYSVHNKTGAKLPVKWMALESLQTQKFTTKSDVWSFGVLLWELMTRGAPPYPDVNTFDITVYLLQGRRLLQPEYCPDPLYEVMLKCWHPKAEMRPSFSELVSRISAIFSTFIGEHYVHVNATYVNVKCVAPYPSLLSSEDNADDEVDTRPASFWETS
row,Structure (SMILES),inhibition at 1 pM [%]
1,Nc1ncc(C(=O)NCC2=CSC3=NCCN23)cc1OCc1c(Cl)cccc1Cl [Example L-292],99
2,Nc1ncc(C(=O)NC2CCCNC2=O)cc1OCc1c(Cl)cccc1Cl [Example L-293],16
3,Cc1cc2cc(CNC(=O)c3cnc(N)c(OCc4c(Cl)cccc4Cl)c3)ccc2[nH]1 [Example L-294],20
4,CN(C)C(CNC(=O)c1cnc(N)c(OCc2c(Cl)cccc2Cl)c1)c1cccnc1 [Example L-295],18
5,CS(=O)(=O)C1CCN(C(=O)c2cnc(N)c(OCc3c(Cl)cccc3Cl)c2)C1 [Example L-296],23
6,CN(CCS(C)(=O)=O)C(=O)c1cnc(N)c(OCc2c(Cl)cccc2Cl)c1 [Example L-297],26
7,Nc1ncc(C(=O)NCCC2CCOCC2)cc1OCc1c(Cl)cccc1Cl [Example L-298],31
8,CS(=O)(=O)CCN1CCN(C(=O)c2cnc(N)c(OCc3c(Cl)cccc3Cl)c2)CC1 [Example L-299],25
9,Nc1ncc(C(=O)NC(CO)c2cccnc2)cc1OCc1c(Cl)cccc1Cl [Example L-300],22
10,Nc1ncc(C(=O)N2CCN(CC(=O)N3CCCCC3)CC2)cc1OCc1c(Cl)cccc1Cl [Example L-301],24
11,Nc1ncc(C(=O)N2CCC(Cc3ccc(F)cc3)CC2)cc1OCc1c(Cl)cccc1Cl [Example L-302],41
12,Nc1ncc(C(=O)NCc2ncccc2O)cc1OCc1c(Cl)cccc1Cl [Example L-303],24
13,CCCCOc1ccc(CNC(=O)c2cnc(N)c(OCc3c(Cl)cccc3Cl)c2)cc1 [Example L-304],18
14,Nc1ncc(C(=O)NCc2ccc(OC(F)F)cc2)cc1OCc1c(Cl)cccc1Cl [Example L-305],26
15,COc1ccc(C(CCO)NC(=O)c2cnc(N)c(OCc3c(Cl)cccc3Cl)c2)cc1 [Example L-306],22
16,Nc1ncc(C(=O)N2CCNC(=O)C2)cc1OCc1c(Cl)cccc1Cl [Example L-307],22
17,Nc1ncc(C(=O)NCc2c(F)cccc2C(F)(F)F)cc1OCc1c(Cl)cccc1Cl [Example L-308],33
18,Nc1ncc(C(=O)N2CCCC(F)(F)C2)cc1OCc1c(Cl)cccc1Cl [Example L-309],16
19,Nc1ncc(C(=O)NCc2ccc[nH]c2=O)cc1OCc1c(Cl)cccc1Cl [Example L-310],16
20,Cc1ccc2c(c1)C(NC(=O)c1cnc(N)c(OCc3c(Cl)cccc3Cl)c1)CCO2 [Example L-311],17
21,CCN1CCCC(NC(=O)c2cnc(N)c(OCc3c(Cl)cccc3Cl)c2)C1 [Example L-312],19

# Further lines, results first:
row,inhibition at 1 pM [%],Structure (SMILES)
1,10,Nc1ncc(C(=O)N2CCC(COCc3ccccc3F)CC2)cc1OCc1c(Cl)cccc1Cl [Example L-313]
2,16,Nc1ncc(C(=O)NCCC2CCC(=O)N2CCc2ccc(O)cc2)cc1OCc1c(Cl)cccc1Cl [Example L-314]
3,72,Nc1ncc(C(=O)N2CCC(Cc3cnccn3)CC2)cc1OCc1c(Cl)cccc1Cl [Example L-315]
4,11,Nc1ncc(C(=O)N2CCC(Cc3cccc(CO)c3)CC2)cc1OCc1c(Cl)cccc1Cl [Example L-316]
5,12,NC(=O)c1ccc(CC2CCN(C(=O)c3cnc(N)c(OCc4c(Cl)cccc4Cl)c3)CC2)cc1 [Example L-317]
6,17,Nc1ncc(C(=O)N2CCC3(CC2)CC(N2CCNC(=O)C2)CO3)cc1OCc1c(Cl)cccc1Cl [Example L-318]
7,71,CCN(CC)CC1(O)CCN(C(=O)c2cnc(N)c(OCc3c(Cl)cccc3Cl)c2)CC1 [Example L-319]
8,28,Nc1ncc(C(=O)N2CCC3(CC2)CC(N2CCC(O)CC2)CO3)cc1OCc1c(Cl)cccc1Cl [Example L-320]
9,25,CN(CCC1CCC(=O)N1CC(F)(F)F)C(=O)c1cnc(N)c(OCc2c(Cl)cccc2Cl)c1 [Example L-321]
10,25,Nc1ncc(C(=O)N2CCC(O)(CCc3ccncc3)CC2)cc1OCc1c(Cl)cccc1Cl [Example L-322]
